Assay results published in patent US8318792B2, “Therapeutic agent for amyotrophic lateral sclerosis” (Nippon Medical School Foundation, priority 2006, dated 2012).

What was measured:
G1H-G93A transgenic mice = experiment: Clinical symptomatological evaluation (day of onset, survival period, disease period, stage periods); format: in vivo, mouse
Experimental: 1) The procedure of concentration adjustment, and the amount and the procedure of administration of the compound (a) were as described below. As a base, 0.5% methylcellulose is prepared. 5 mg of the compound (a) is pulverized in an agate mortar, and then a small amount of 0.5% methylcellulose is added to form a complete suspension. Subsequently, a small amount of 0.5% methylcellulose is added gradually, so that finally 5 mg of the compound (a) is suspended in 10 mL of 0.5% methylcellulose. A sample of 5 mg of compound (a)/10 mL of 0.5% methylcellulose (5 mg/10 mL) was prepared by the above-described procedure, and thus the compound (a) was orally administered once a day in a dose of 5 mg per kg of the mouse body weight (5 mg/kg).
As the experimental animal, male transgenic mice over-expressing a high copy number (25 copies) of mutated human SOD1 gene with a G93A point mutation, i.e., B6SJL-TgN [SOD1-G93A]1Gur (G1H-G93A transgenic mice, JR2726; Hemizygote) (Gurney M E, et al., Science, 264, 1772-1775, 1994), were purchased from Jackson Laboratory (Bar Harbor, USA) and used. At the same time, wild-type male mice from the same litter, B6SJL-TgN[SOD1-G93A]1Gur (Wild-type), were also purchased from Jackson Laboratory and used.
The mice were subjected to a clinical symptomatological evaluation everyday. The clinical symptomatological evaluation was performed from one week after the arrival from Jackson Laboratory. […] The day of onset, the survival period and the disease period were indicated by the number of days. In regard to the indication of the number of days of the disease period, one day (one disease day) corresponds to within 24 hours from the onset (the “onset” is determined by the observation of the clinical symptomatological evaluation stage 1), and two days (two disease days) corresponds to more than 24 hours after and within 48 hours from the onset. Subsequent disease days after the onset were determined in the same manner.
The mice were divided into seven experimental groups, to which a placebo, the compound (a), compound (b), compound (c) or allopurinol was administered. That is, the seven groups consist of: an experimental group administered with placebo; a treatment experimental group administered with compound (a) before onset; a treatment experimental group administered with compound (a) after onset; a treatment experimental group administered with compound (b) before onset; a treatment experimental group administered with compound (c) before onset; a treatment experimental group administered with compound (c) after onset; and a treatment group administered with allopurinol before onset. Details of the respective groups will be described in the following.
Ten G1H-G93A transgenic mice were used. From the 80th day after birth, 5 mg/kg of the compound (a) was orally administered everyday. […]
Ten G1H-G93A transgenic mice were used. From the 80th day after birth, 5 mg/kg of the compound (b) was orally administered everyday.
Ten G1H-G93A transgenic mice were used. From the 80th day after birth, 5 mg/kg of the compound (c) was orally administered everyday. […]
Ten G1H-G93A transgenic mice were used. From the 80th day after birth, 5 mg/kg of allopurinol was orally administered everyday.
In regard to the results of the clinical symptomatological evaluation, the day of onset, the survival period (days taken to show quadriplegia and to reach the moribund state), the disease period (days taken to show quadriplegia and to reach the moribund state, from the day of onset), and the time periods for the respective stages of the clinical symptomatological evaluation, were indicated by the average±standard deviation. In regard to the results of the exercise tolerance test, the score values of the respective exercise tolerance tests, including the extension reflex test, inclined plane test, footprint test, rotarod test and beam balance test, were indicated by the average±standard deviation. […]

[1] = tested on: neurotoxin in cerebrospinal fluid from ALS patients; conditions: in vitro; Non-Patent Document 3; cited from earlier work
[2] = tested on: transgenic mouse which expresses human mutated SOD1 gene; conditions: Non-Patent Document 9, cited from earlier work
[3] = 5 mg/kg oral daily from 80th day after birth (before onset), Mann-Whitney's U test, log-rank test
[4] = 5 mg/kg oral once a day from 80th day after birth (before onset), average±SD

Compound	time periods for the respective stages in comparison to placebo group (G1H-G93A transgenic mice; 5 mg/kg oral daily from 80th day after birth (before onset), Mann-Whitney's U test)	disease period extending effect in comparison to placebo group (G1H-G93A transgenic mice; [3])	onset delaying effect in comparison to placebo group (G1H-G93A transgenic mice; [3])	survival period extending effect in comparison to placebo group (G1H-G93A transgenic mice; [3])	day of onset (G1H-G93A transgenic mice; [4]) [days]	disease period (G1H-G93A transgenic mice; [4]) [days]	survival period (G1H-G93A transgenic mice; [4]) [days]	time period of clinical symptomatological stage 1 (G1H-G93A transgenic mice; [4]) [days]	time period of clinical symptomatological stage 2 (G1H-G93A transgenic mice; [4]) [days]	time period of clinical symptomatological stage 3 (G1H-G93A transgenic mice; [4]) [days]	time period of clinical symptomatological stage 4 (G1H-G93A transgenic mice; [4]) [days]	time period of clinical symptomatological stage 5 (G1H-G93A transgenic mice; [4]) [days]	action on the neurotoxin in cerebrospinal fluid from ALS patients [1]	effect on life span in the transgenic mouse [2]	ALS treating effect ([2]; intraperitoneal administration in an amount of 10 mg/kg)
Oc1ncnc2[nH]ncc12 [allopurinol, reference compound]	not found to have the extended period of respective stages with significant differences	did not lead to the onset delaying effect, survival period extending effect or disease period extending effect	did not result in significant delaying of the day of onset	did not lead to the onset delaying effect, survival period extending effect or disease period extending effect	102.2 ± 4.4	21.0 ± 3.6	122.2 ± 1.3	6.8±1.1	5.4±1.3	4.4±1.2	2.9±0.7	1.5±0.5	counteract the neurotoxin		
[O-][n+]1cccc(/C(Cl)=N/OC[C@H](O)CN2CCCCC2)c1 [arimoclomol]														prolongation of life	effective
vitamin E													counteract the neurotoxin		
